Experimental data as given in patent US10266497B2 (ABIDE THERAPEUTICS, INC., priority 2017, dated 2019).

molecular target: T1, MAGL (Mus musculus, UniProt O35678); assay: In vitro competitive activity-based protein profiling, MAGL, mouse; details: read-out: MAGL % inh. 1 μM (mouse)
T1 sequence (O35678 1-303): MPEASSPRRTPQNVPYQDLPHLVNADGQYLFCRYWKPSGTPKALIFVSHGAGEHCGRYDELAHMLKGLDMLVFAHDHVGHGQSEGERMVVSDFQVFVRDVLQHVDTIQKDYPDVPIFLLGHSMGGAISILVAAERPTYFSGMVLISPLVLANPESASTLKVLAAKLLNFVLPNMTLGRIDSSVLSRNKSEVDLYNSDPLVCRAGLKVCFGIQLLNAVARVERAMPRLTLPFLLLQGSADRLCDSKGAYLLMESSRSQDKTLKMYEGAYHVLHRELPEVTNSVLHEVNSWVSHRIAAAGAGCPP
Procedure: Biological Evaluation In Vitro Competitive Activity-Based Protein Profiling.
Proteomes (mouse brain membrane fraction for mouse assays; human prefrontal cortex membrane fractions for human assays) (50 mL, 1.0 mg/mL total protein concentration) were preincubated with varying concentrations of inhibitors at 37° C. After 30 min, FP-Rh (1.0 mL, 50 mM in DMSO) was added and the mixture was incubated for another 30 min at 37° C. Reactions were quenched with SDS loading buffer (15 μL—4λ) and run on SDS-PAGE.

| Compound | inhibition at 1 µM [%] |
| --- | --- |
| C[C@H]1CC(N(C)Cc2ccc(C(F)(F)F)cc2N2CCCC2)CCN1C(=O)n1cc(Cl)c(C(=O)O)n1 (stereo partly drawn) [Example 33, 4-Chloro-1-((2S)-2-methyl-4-(methyl(2-(pyrrolidin-1-yl)-4-(trifluoromethyl)benzyl)amino)piperidine-1-carbonyl)-1H-pyrazole-3-carboxylic Acid] | 50 to 75 |
| CNC(=O)c1ccn(C(=O)N2CC3CN(Cc4ccc(C(F)(F)F)cc4)CC3C2)n1 (stereo not drawn) [Example 425, N-methyl-1-(5-(4-(trifluoromethyl)benzyl)octahydro-pyrrolo[3,4-c]pyrrole-2-carbonyl)-1H-pyrazole-3-carboxamide] | > 75 |
| CNC(=O)c1ccn(C(=O)N2CC3CN(Cc4cc(Cl)ccc4Cl)CC3C2)n1 (stereo not drawn) [Example 430, 1-(5-(2,5-dichlorobenzyl)octa-hydropyrrolo[3,4-c]pyrrole-2-carbonyl)-N-methyl-1H-pyrazole-3-carboxamide] | > 75 |
| CNC(=O)c1ccn(C(=O)N2CC3CN(Cc4cccc(C(F)(F)F)c4)CC3C2)n1 (stereo not drawn) [Example 432, N-methyl-1-(5-(3-(trifluoromethyl)benzyl)octahydro-pyrrolo[3,4-c]pyrrole-2-carbonyl)-1H-pyrazole-3-carboxamide] | > 75 |
| CNC(=O)c1ccn(C(=O)N2C[C@H]3C[C@@H](N(C)Cc4ccccc4C(F)(F)F)C[C@H]3C2)n1 [Example 434, N-methyl-1-(cis-5-(methyl(2-(trifluoromethyl)benzyl)amino)octa-hydrocyclopenta[c]pyrrole-2-carbonyl)-1H-pyrazole-3-carboxamide] | > 75 |
| CNC(=O)c1ccn(C(=O)N2C[C@H]3C[C@@H](N(C)Cc4ccc(C(F)(F)F)cc4)C[C@H]3C2)n1 [Example 439, N-methyl-1-(cis-5-(methyl(4-(trifluoromethyl)benzyl)amino)octa-hydrocyclopenta[c]pyrrole-2-carbonyl)-1H-pyrazole-3-carboxamide] | > 75 |
| Cc1cn(C(=O)N2CCN(Cc3cccc(Oc4ccc(Cl)cc4)c3)C[C@@H]2C)nc1C(=O)O [Example 442, (S)-1-(4-(3-(4-chlorophenoxy)benzyl)-2-methylpiperazine-1-carbonyl)-4-methyl-1H-pyrazole-3-carboxylic acid] | > 75 |
| COc1cccc(O[C@H]2C[C@@H]3CN(C(=O)n4ccc(C(=O)O)n4)C[C@@H]3C2)c1Cl [Example 445, 1-(trans-5-(2-chloro-3-methoxyphenoxy)octahydrocyclopenta [c]pyrrole-2-carbonyl)-1H-pyrazole-3-carboxylic acid] | > 75 |
| O=C(O)c1ccn(C(=O)N2C[C@H]3C[C@H](Oc4cccc(-c5cscn5)c4Cl)C[C@H]3C2)n1 [Example 446, 1-(trans-5-(2-chloro-3-(thiazol-4-yl)phenoxy)octa-hydrocyclopenta[c]pyrrole-2-carbonyl)-1H-pyrazole-3-carboxylic acid] | > 75 |
| CC(C)COc1cccc(O[C@H]2C[C@@H]3CN(C(=O)n4ccc(C(=O)O)n4)C[C@@H]3C2)c1Cl [Example 448, 1-(trans-5-(2-chloro-3-isobutoxyphenoxy)octahydrocyclopenta [c]pyrrole-2-carbonyl)-1H-pyrazole-3-carboxylic acid] | > 75 |

The next lines start with the values.

| inhibition at 1 µM [%] | Compound |
| --- | --- |
| > 75 | NC(=O)c1ccn(C(=O)N2CCN(Cc3cccc(C4(O)CCOCC4)c3)CC2)n1 [Example 237, 1-(4-(3-(4-hydroxytetrahydro-2H-pyran-4-yl)benzyl)piperazine-1-carbonyl)-1H-pyrazole-3-carboxamide] |
| > 75 | Cc1cc(CN2CCCC23CCN(C(=O)n2ccc(C(=O)O)n2)CC3)cc(C(F)(F)F)c1 [Example 303, 1-(1-(3-methyl-5-(trifluoromethyl)benzyl)-1,8-diazaspiro[4.5]decane-8-carbonyl)-1H-pyrazole-3-carboxylic acid] |
| > 75 | O=C(O)c1ccn(C(=O)N2CCC3(CCCN3Cc3cc(Cl)cc(N4CCCC4)c3)CC2)n1 [Example 344, 1-(1-(3-chloro-5-(pyrrolidin-1-yl)benzyl)-1,8-diazaspiro[4.5]decane-8-carbonyl)-1H-pyrazole-3-carboxylic acid] |
| > 75 | CNC(=O)c1ccn(C(=O)N2CCN(Cc3ccc(Cl)cc3)CC2)n1 [Example 420, 1-(4-(4-chlorobenzyl)piper-azine-1-carbonyl)-N-methyl-1H-pyrazole-3-carboxamide] |
| > 75 | NC(=O)c1ccn(C(=O)N2CCC3(CCN(Cc4ccc(Cl)cc4)C3)C2)n1 (stereo not drawn) [Example 421, 1-(7-(4-chlorobenzyl)-2,7-diazaspiro[4.4]non-ane-2-carbonyl)-1H-pyrazole-3-carboxamide] |
| > 75 | CNC(=O)c1ccn(C(=O)N2CCN(Cc3cccc(Oc4ccccc4)c3)CC2)n1 [Example 423, N-methyl-1-(4-(3-phenoxybenzyl)piperazine-1-carbonyl)-1H-pyrazole-3-carboxamide] |
| > 75 | CNC(=O)c1ccn(C(=O)N2CCC3(CCN(Cc4cc(Cl)ccc4Cl)C3)C2)n1 (stereo not drawn) [Example 428, 1-(7-(2,5-dichlorobenzyl)-2,7-diazaspiro[4.4]non-ane-2-carbonyl)-N-methyl-1H-pyrazole-3-carboxamide] |
| > 75 | NC(=O)c1ccn(C(=O)N2CCC3(CCN(Cc4cccc(C(F)(F)F)c4)C3)C2)n1 (stereo not drawn) [Example 429, 1-(7-(3-(trifluoromethyl)benzyl)-2,7-diazaspiro[4.4]non-ane-2-carbonyl)-1H-pyrazole-3-carboxamide] |
| > 75 | CNC(=O)c1ccn(C(=O)N2CCC3(CCN(Cc4cc(Cl)cc(C(F)(F)F)c4)C3)C2)n1 (stereo not drawn) [Example 435, 1-(7-(3-chloro-5-(trifluoromethyl)benzyl)-2,7-diazaspiro[4.4]non-ane-2-carbonyl)-N-methyl-1H-pyrazole-3-carboxamide] |
| > 75 | NC(=O)c1ccn(C(=O)N2CCC3(CCN(Cc4ccc(N5CCOCC5)cc4C(F)(F)F)C3)C2)n1 (stereo not drawn) [Example 436, 1-(7-(4-morpholino-2-(trifluoromethyl)benzyl)-2,7-diazaspiro[4.4]non-ane-2-carbonyl)-1H-pyrazole-3-carboxamide] |
| > 75 | CNC(=O)c1ccn(C(=O)N2CC3CN(Cc4cc(Cl)cc(C(F)(F)F)c4)CC3C2)n1 (stereo not drawn) [Example 437, 1-(5-(3-chloro-5-(trifluoromethyl)benzyl)octahydro-pyrrolo[3,4-c]pyrrole-2-carbonyl)-N-methyl-1H-pyrazole-3-carboxamide] |
| > 75 | CNC(=O)c1ccn(C(=O)N2CC3CN(Cc4ccc(N5CCOCC5)cc4C(F)(F)F)CC3C2)n1 (stereo not drawn) [Example 440, N-methyl-1-(5-(4-morpholino-2-(trifluoromethyl)benzyl)octahydro-pyrrolo[3,4-c]pyrrole-2-carbonyl)-1H-pyrazole-3-carboxamide] |
| > 75 | O=C(O)c1nn(C(=O)N2CCN(Cc3ccc(C(F)(F)F)cc3N3CCCC3)CC2)cc1Cl [Example 443, 4-chloro-1-(4-(2-(pyrrolidin-1-yl)-4-(trifluoromethyl)benzyl)piperazine-1-carbonyl)-1H-pyrazole-3-carboxylic acid] |
| > 75 | O=C(O)c1nn(C(=O)N2CCN(Cc3cccc(C(F)(F)F)c3N3CCOCC3)CC2)cc1Cl [Example 449, 4-chloro-1-(4-(2-morpholino-3-(trifluoromethyl)benzyl)piperazine-1-carbonyl)-1H-pyrazole-3-carboxylic acid] |
